Measurements taken from PMC7251097, “Aspartate/asparagine-β-hydroxylase: a high-throughput mass spectrometric assay for discovery of small molecule inhibitors” (Scientific Reports, 2020).
Counter-ions that a name gives are not always drawn. Like-named read-outs stand apart in the source and are kept apart here. Values belong to the molecule of their own block, whether it stands above or below them.

Molecular target: T1, His6-AspH315–758 (human aspartate/asparagine-β-hydroxylase, AspH) (Homo sapiens, UniProt Q12797)
T1 construct: N-Terminally His6-tagged human AspH315–758 (His6-AspH315–758) was produced in E. coli BL21 (DE3) cells; made in house; host or cells: E. coli BL21 (DE3), pET-28a(+) vector
T1 sequence (Q12797 315-758): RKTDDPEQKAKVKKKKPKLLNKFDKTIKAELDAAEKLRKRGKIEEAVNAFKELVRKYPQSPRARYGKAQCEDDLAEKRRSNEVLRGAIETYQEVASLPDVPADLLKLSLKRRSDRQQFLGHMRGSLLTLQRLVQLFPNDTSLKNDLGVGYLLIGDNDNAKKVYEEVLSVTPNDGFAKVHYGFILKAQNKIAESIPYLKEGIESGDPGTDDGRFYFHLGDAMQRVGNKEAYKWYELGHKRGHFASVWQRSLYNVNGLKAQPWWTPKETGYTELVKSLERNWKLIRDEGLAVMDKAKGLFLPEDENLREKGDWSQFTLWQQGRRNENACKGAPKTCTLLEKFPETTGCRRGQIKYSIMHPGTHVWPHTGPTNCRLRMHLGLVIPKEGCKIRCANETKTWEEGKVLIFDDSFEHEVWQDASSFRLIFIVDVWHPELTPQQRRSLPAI
Assay: SPE-MS AspH inhibition assay (LOPAC screen at fixed 20 μM and IC50 dose-response), hydroxylation of cyclic peptide hFX-CP101–119
Format: biochemical
Details: for Plate 1 (% inhibition) / Plate 1 (% conversion): LOPAC compound at fixed 20 uM; for Plate 1 (% inhibition): plate 1, normalised to DMSO and 2,4-PDCA controls; for Plate 1 (% conversion) / % conversion: substrate conversion; for Plate 5 (% conversion): mean conversion DMSO 32.88

[1] = LOPAC compound at 20uM, plate 2, conversion of substrate peptide
[2] = LOPAC compound at 20uM, plate 2, normalised to DMSO and 2,4-PDCA controls
[3] = LOPAC compound at 20uM, plate 2, normalised to DMSO and 2,4-PDCA controls, read-out: Plate 2 (% inhibition)
[4] = 50 nM His6-AspH315–758, 1.0 μM hFX-CP101–119, 3 μM 2OG, 2 μM Fe(II), 50 mM HEPES pH 7.5, 20 °C, mean ± SD, n = 2 (2,4-PDCA n = 10), read-out: IC50
[5] = plate 5 (Pfitzer), test compounds at fixed 20 μM
[6] = read-out: Plate 2 (% inhibition)
[7] = LOPAC Plate 4, compound at 20 uM

Plate 1 (% inhibition): -35.30%
Plate 1 (% conversion): 47.73%
SMILES: c1ccc(-c2cnn3cc(-c4ccc(OCCN5CCOCC5)cc4)cnc23)cc1 [DMH4]

Plate 2 (% conversion) [1]: 40.63%
Plate 2 (% inhibition) [2]: -13.96%
SMILES: CC(C)[C@@H]1CC[C@@H](C)C[C@@H]1P(=O)(c1ccccc1)c1ccccc1 [DPO-1]

SMILES: CN(C)NC(=O)CCC(=O)O [Daminozide, daminozide, reference compound]
IC50 [μM] (pH 7.5): inactive

Plate 2 (% conversion) [1]: 39.67%
inhibition at 20 µM [3]: -11.1%
SMILES: C#C[C@]1(O)CC[C@H]2[C@@H]3CCC4=Cc5oncc5C[C@]4(C)[C@H]3CC[C@@]21C [Danazol]

inhibition at 20 µM (AspH activity, fixed compound concentration 20 μM, initial LOPAC screen, 0.5%v/v DMSO, read-out: Inhibition at 20 µM [%]): 98.5%
SMILES: O=c1ccc2ccc(O)c(O)c2o1 [Daphnetin, reference compound]

SMILES: C[N+](C)(C)CCCCCCCCCC[N+](C)(C)C.[Br-].[Br-] [Decamethonium dibromide]
Plate 2 (% conversion): 41.52%
Plate 2 (% inhibition) (20 µM): -16.63%

IC50 [4]: 2.08 ± 0.81 µM
SMILES: O=C(O)c1ccc(-n2nc(-c3ccccc3O)nc2-c2ccccc2O)cc1 [Deferasirox, reference compound]

IC50 [4]: 4.89 ± 0.37 µM
SMILES: Cc1c(O)c(=O)ccn1C [Deferiprone, reference compound]

IC50 [4]: 3.16 ± 0.93 µM
SMILES: CC(=O)N(O)CCCCCNC(=O)CCC(=O)N(O)CCCCCNC(=O)CCC(=O)N(O)CCCCCN [Deferoxamine mesylate, reference compound]

Plate 5 (% inhibition) [5]: 28.61%
Plate 5 (% conversion) [5]: 26.58%
SMILES: CC(C)Nc1cccnc1N1CCN(C(=O)c2cc3cc(NS(C)(=O)=O)ccc3[nH]2)CC1 [Delavirdine]

IC50 (IC50 [μM]): 16.3 ± 0.44 µM
SMILES: O=C(O)CNC(=O)c1c(O)c2ccccc2n(OCC2CC2)c1=O [Desidustat, desidustat, reference compound]

Plate 2 (% conversion) [1]: 40.94%
inhibition at 20 µM [3]: -14.9%
SMILES: CNCCCN1c2ccccc2CCc2ccccc21 [Desipramine hydrochloride]

Plate 2 (% conversion) [1]: 21.33%
inhibition at 20 µM [3]: 43.7%
SMILES: O=c1c2ccccc2[nH]c(=S)n1CCN1CCC(=C(c2ccc(F)cc2)c2ccc(F)cc2)CC1 [Diacylglycerol Kinase Inhibitor II]

Plate 2 (% conversion) [1]: 32.33%
inhibition at 20 µM [3]: 10.8%
SMILES: O=C(O)Cc1ccccc1Nc1c(Cl)cccc1Cl [Diclofenac sodium]

Inhibition at 20 µM [%] (AspH activity, fixed compound concentration 20 μM, initial LOPAC screen, 0.5%v/v DMSO): 100.3%
Plate 2 (% conversion) [1]: 2.39%
Plate 2 (% inhibition) [2]: 100.26%
SMILES: O=C(O)CN(CCN(CC(=O)O)CC(=O)O)CCN(CC(=O)O)CC(=O)O [Diethylenetriaminepentaacetic acid, reference compound]

SMILES: CN1C[C@H](C(=O)N[C@]2(C)O[C@@]3(O)[C@@H]4CCCN4C(=O)[C@H](Cc4ccccc4)N3C2=O)C[C@@H]2c3cccc4[nH]cc(c34)C[C@H]21 [Dihydroergotamine methanesulfonate]
Plate 2 (% conversion): 37.10%
inhibition at 20 µM [6]: -3.42%

SMILES: CC(C)[C@H]1CN[C@H](C(=O)O)[C@H]1CC(=O)O [Dihydrokainic acid]
Plate 2 (% conversion): 34.38%
Plate 2 (% inhibition) (20 µM): 4.72%

SMILES: C[C@@H]1O[C@@H](O[C@H]2C[C@@H](O)[C@]3(CO)[C@H]4[C@H](O)C[C@]5(C)[C@@H]([C@@H]6COC(=O)C6)CC[C@]5(O)[C@@H]4CC[C@]3(O)C2)[C@H](O)[C@H](O)[C@H]1O [Dihydroouabain]
Plate 2 (% conversion): 38.16%
Plate 2 (% inhibition) (20 µM): -6.59%

Plate 2 (% conversion) [1]: 41.49%
inhibition at 20 µM [3]: -16.5%
SMILES: COc1cc(C(=O)OCCCN2CCCN(CCCOC(=O)c3cc(OC)c(OC)c(OC)c3)CC2)cc(OC)c1OC [Dilazep hydrochloride]

inhibition at 20 µM [3]: -7.73%
SMILES: CN(C)CCOC(c1ccccc1)c1ccccc1 [Diphenhydramine hydrochloride]

SMILES: c1ccc2c(c1)[I+]c1ccccc1-2 [Diphenyleneiodonium chloride]
Plate 2 (% conversion): 35.66%
inhibition at 20 µM [6]: 0.88%

SMILES: CCCN(CCC)CCc1ccc(O)c(O)c1 [Dipropyldopamine hydrobromide]
Plate 2 (% conversion): 10.27%
inhibition at 20 µM [6]: 76.7%

Plate 2 (% conversion) [1]: 42.60%
inhibition at 20 µM [3]: -19.9%
SMILES: OCCN(CCO)c1nc(N2CCCCC2)c2nc(N(CCO)CCO)nc(N3CCCCC3)c2n1 [Dipyridamole]

Plate 2 (% conversion) [1]: 8.47%
inhibition at 20 µM [3]: 82.1%
SMILES: CC(CCc1ccc(O)cc1)NCCc1ccc(O)c(O)c1 (stereo not shown) [Dobutamine hydrochloride]

inhibition at 20 µM [3]: -3.76%
Plate 5 (% inhibition) [5]: -1.04%
Plate 5 (% conversion) [5]: 36.67%
SMILES: CN(CCOc1ccc(NS(C)(=O)=O)cc1)CCc1ccc(NS(C)(=O)=O)cc1 [Dofetilide]

SMILES: CS(=O)(=O)O.O.O=C(OC1C[C@@H]2CC3C[C@H](C1)N2CC3=O)c1c[nH]c2ccccc12 (stereo partly shown) [Dolasetron mesylate hydrate]
% inhibition [7]: -4.53%
% conversion [7]: 38.02%

SMILES: Cl.N#Cc1ccc(N2CCN(C(=O)COc3ccc4[nH]cc(CCN)c4c3)CC2)cc1 [Donitriptan monohydrochloride]
Plate 2 (% conversion) [1]: 23.20%
Plate 2 (% inhibition) [2]: 38.09%

Plate 2 (% conversion) [1]: 41.90%
inhibition at 20 µM [3]: -17.8%
SMILES: COc1cc2nc(N3CCN(C(=O)C4COc5ccccc5O4)CC3)nc(N)c2cc1OC (stereo not shown) [Doxazosin mesylate]

Plate 1 (% inhibition): 1.86%
Plate 1 (% conversion): 35.25%
SMILES: Cc1cc(Cl)ccc1OCCCC(=O)NO [Droxinostat]

% conversion [7]: 36.52%
Plate 5 (% inhibition) [5]: 19.44%
Plate 5 (% conversion) [5]: 29.70%
SMILES: CCOC(=O)C1=C(O)C(=O)N(Cc2ccccc2)C1 [EBPC]

Plate 2 (% conversion) [1]: 38.29%
Plate 2 (% inhibition) [2]: -6.96%
SMILES: O=C(O)CN(CCOCCOCCN(CC(=O)O)CC(=O)O)CC(=O)O [EGTA]

Plate 5 (% inhibition) [5]: 30.36%
Plate 5 (% conversion) [5]: 25.98%
SMILES: C=Cc1cc(O)cc2nc(-c3ccc(O)c(F)c3)oc12 [ERB-041]

IC50 [4]: 0.12 ± 0.01 µM
SMILES: O=c1c2ccccc2[se]n1-c1ccccc1 [Ebselen, ebselen, reference compound]

SMILES: CC[N+](C)(C)c1cccc(O)c1 [Edrophonium chloride]
Plate 2 (% conversion): 37.54%
inhibition at 20 µM [6]: -4.75%

Plate 2 (% conversion) [1]: 34.90%
inhibition at 20 µM [3]: 3.14%
SMILES: CCC1(C2=NCCN2)Cc2ccccc2O1 (stereo not shown) [Efaroxan hydrochloride]

Plate 5 (% inhibition) [5]: 0.46%
Plate 5 (% conversion) [5]: 36.16%
SMILES: CN1CCC[C@@H]1Cc1c[nH]c2ccc(CCS(=O)(=O)c3ccccc3)cc12 [Eletriptan]

Plate 2 (% conversion) [1]: 39.73%
inhibition at 20 µM [3]: -11.3%
SMILES: OC(CN1CCC(Cc2ccc(F)cc2)CC1)c1ccc(Cl)cc1 (stereo not shown) [Eliprodil]

SMILES: Cc1c2ccncc2c(C)c2c1[nH]c1ccccc12 [Ellipticine]
Plate 2 (% conversion): 45.95%
inhibition at 20 µM [3]: -29.9%

SMILES: CC[C@H]1CN2CCc3cc(OC)c(OC)cc3[C@@H]2C[C@@H]1C[C@H]1NCCc2cc(OC)c(OC)cc21 [Emetine dihydrochloride hydrate]
Plate 2 (% conversion): 37.46%
inhibition at 20 µM [6]: -4.49%

SMILES: Cc1cc(O)c2c(c1)C(=O)c1cc(O)cc(O)c1C2=O [Emodin]
Plate 2 (% conversion): 37.82%
inhibition at 20 µM [3]: -5.58%

% conversion [7]: 37.37%
SMILES: C[C@H](N[C@@H](CCc1ccccc1)C(=O)O)C(=O)N1CCC[C@H]1C(=O)O.O.O [Enalaprilat dihydrate]

Plate 2 (% conversion) [1]: 35.33%
inhibition at 20 µM [3]: 1.86%
SMILES: CC(C)C[C@H](NC(=O)[C@H](O)[C@H](N)Cc1ccccc1)C(=O)O [Epibestatin hydrochloride]

Plate 3 (% conversion) (LOPAC compound at 20uM, plate 3, conversion of substrate peptide): 33.79%
SMILES: CCCCc1ncc(/C=C(\Cc2cccs2)C(=O)O)n1Cc1ccc(C(=O)O)cc1 [Eprosartan mesylate]

Plate 2 (% conversion) [1]: 41.52%
Plate 2 (% inhibition) [2]: -16.62%
SMILES: COc1ccc2[n-]c([S@@+]([O-])Cc3ncc(C)c(OC)c3C)nc2c1.COc1ccc2[n-]c([S@@+]([O-])Cc3ncc(C)c(OC)c3C)nc2c1.O.O.[Mg+2] [Esomeprazole magnesium dihydrate]

SMILES: C[C@]12CC[C@@H]3c4ccc(O)cc4CC[C@H]3[C@@H]1CCC2=O [Estrone]
Plate 2 (% conversion): 37.75%
inhibition at 20 µM [3]: -5.35%

Plate 2 (% conversion) [1]: 58.51%
inhibition at 20 µM [3]: -67.4%
SMILES: CCOC(=O)c1cnc2c(cnn2CC)c1NN=C(C)C [Etazolate hydrochloride]

Plate 2 (% conversion) [1]: 37.85%
inhibition at 20 µM [3]: -5.65%
SMILES: CCC1(C)CC(=O)NC1=O (stereo not shown) [Ethosuximide]

Plate 2 (% conversion) [1]: 36.91%
inhibition at 20 µM [3]: -2.84%
SMILES: CCc1cccc2c3c([nH]c12)C(CC)(CC(=O)O)OCC3 (stereo not shown) [Etodolac]

SMILES: C=C1C[C@@H]2[C@H](CC[C@]3(C)C(=O)CC[C@@H]23)[C@@]2(C)C=CC(=O)C=C12 [Exemestane]
Plate 5 (% inhibition): 2.56%
Plate 5 (% conversion) [5]: 35.45%
